One compound from ChEMBL document CHEMBL5390209, “Spinosyn A and Its Derivative Inhibit Colorectal Cancer Cell Growth via the EGFR Pathway” (J Nat Prod, 2023) can be followed below.

Data set [1] concerns HT-29. Nature of the data set: Antitumor activity against human HT-29 cells xenografted Balb/c mouse assessed as inhibited tumor growth at 10 mg/kg/day, ip administrated for twice a week and measured after 6 days. It is filed as functional, organism-based. To be noted: time 6.0 day. (Xenograft models place foreign cells or tissue in a host animal.)
Data set [2] is described as follows: Toxicity in human HT-29 cells xenografted Balb/c mouse assessed as change in body weight at 10 mg/kg/day, ip administrated for twice a week and measured after 6 days. It is filed as organism-based. As to conditions: in vivo, 144 h, time 6 day.
For data set [3], the system named is HT-29. In words: Antitumor activity against human HT-29 cells xenografted Balb/c mouse assessed as reduction in tumor growth at 10 mg/kg/day, ip administrated for twice a week and measured after 28 days. Format: functional, organism-based. To be noted: time 28.0 day.
Data set [4] deals with HT-29. Nature of the data set: Antitumor activity against human HT-29 cells xenografted Balb/c mouse assessed as reduction in tumor cell density at 10 mg/kg/day, ip administrated for twice a week and measured after 28 days by Hematoxylin and Eosin staining based method. Format: functional, organism-based. To be noted: time 28.0 day.
Data set [5] relates to HT-29. Nature of the data set: Antitumor activity against human HT-29 cells xenografted Balb/c mouse assessed as reduction in Ki67 expression level at 10 mg/kg/day, ip administrated for twice a week and measured after 28 days by immunohistochemistry staining method. It is filed as functional, organism-based. As to conditions: time 28.0 day.
The nature of data set [6]: Toxicity in human HT-29 cells xenografted Balb/c mouse assessed as change in liver pathology at 10 mg/kg/day, ip administrated for twice a week and measured after 28 days. Format: organism-based. As to conditions: in vivo, 672 h, time 28 day.
Data set [7] is described as follows: Toxicity in human HT-29 cells xenografted Balb/c mouse assessed as change in heart pathology at 10 mg/kg/day, ip administrated for twice a week and measured after 28 days. As to conditions: in vivo, 672 h, time 28 day. It is filed as organism-based.
Data set [8] can be described thus: Toxicity in human HT-29 cells xenografted Balb/c mouse assessed as change in spleen pathology at 10 mg/kg/day, ip administrated for twice a week and measured after 28 days. Format: organism-based. As to conditions: in vivo, 672 h, time 28 day.
The nature of data set [9]: Toxicity in human HT-29 cells xenografted Balb/c mouse assessed as change in lung pathology at 10 mg/kg/day, ip administrated for twice a week and measured after 28 days. It is filed as organism-based. To be noted: in vivo, 672 h, time 28 day.
The nature of data set [10]: Toxicity in human HT-29 cells xenografted Balb/c mouse assessed as change in kidney pathology at 10 mg/kg/day, ip administrated for twice a week and measured after 28 days. It is filed as organism-based. As to conditions: in vivo, 672 h, time 28 day.
Data set [11] deals with HT-29. Nature of the data set: Inhibition of EGFR in human HT-29 cells xenografted in BALB/c nude mouse assessed as EGFR protein level in tumor at 10 mg/kg/day, ip administrated for twice a week and measured after 28 days by Western blotting analysis. Format: functional, organism-based. To be noted: time 28.0 day.
The subject of data set [12] is HT-29. Nature of the data set: Inhibition of HER2 in human HT-29 cells xenografted in BALB/c nude mouse assessed as HER2 protein level in tumor at 10 mg/kg/day, ip administrated for twice a week and measured after 28 days by Western blotting analysis. It is filed as functional, organism-based. To be noted: time 28.0 day.
Data set [13] has as its system HT-29. Nature of the data set: Inhibition of EGFR in human HT-29 cells xenografted in BALB/c nude mouse assessed as reduction in EGFR protein expression level in tumor at 10 mg/kg/day, ip administrated for twice a week and measured after 28 days by Western blotting analysis. As to conditions: time 28.0 day. Format: functional, organism-based.
For data set [14], the system named is HT-29. Nature of the data set: Inhibition of HER2 in human HT-29 cells xenografted in BALB/c nude mouse assessed as HER2 protein expression level in tumor at 10 mg/kg/day, ip administrated for twice a week and measured after 28 days by Western blotting analysis. Format: functional, organism-based. To be noted: time 28.0 day.

SMILES strings stand for the structures. Active and inactive are the calls of the source. The calls are words filed in the database; no cut-off is given here.

Consider `O=c1[nH]cc(F)c(=O)[nH]1` [FLUOROURACIL], for which the inhibition entry in the data set on HT-29 [1], in the data set on HT-29 [11] and in the data set on HT-29 [13] was “Active” in each case. Besides, the Activity result in data set [2], in data set [6], in data set [7], in data set [8], in [9] and in [10] was “Non-Toxic” in each case. The result in the data set on HT-29 [3], in the data set on HT-29 [4] and in the data set with HT-29 [5] was Active. Besides, the inhibition entry in the data set with HT-29 [12] and in the data set with HT-29 [14] was “inactive” each time.
